According to the supplement of paper PMC10290057:

Tests used:
HCT116 [1] = experiment: AC50 cell viability (CellTiter-Glo); higher = less potent; details: 48 h
HCT116 [2] = experiment: efficacy (fitted maximal change in viability relative to DMSO control); higher = less cytotoxic (negative = loss of viability); details: 48 h
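Wherever AC50 cell viability (CellTiter-Glo) is given: HCT116 colorectal carcinoma cells screened at five concentrations per compound, luminescent viability scaled between DMSO wells and empty wells on each plate, curves fitted per compound.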
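Wherever efficacy (fitted maximal change in viability relative to DMSO control) is given: Luminescence-based viability readout, five doses per compound, normalized against on-plate DMSO and empty-well controls, followed by dose-response curve fitting for every drug.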

Row | Compound | AC50 cell viability (HCT116 [1]) [µM] | efficacy (HCT116 [2]) [%]
1 | C=CC(=O)Nc1ccc2ncnc(Nc3cccc(Br)c3)c2c1 | 13.2 | -86.8
2 | c1ccc(CNc2nc(NCc3ccccc3)c3ccccc3n2)cc1 | 8.33 | -98.7
3 | C/C1=C/C(=C(/CNC(=O)C2=CC(=CC3=C2C=N[N]3C4CCCC4)C5=CC=C(CN6CCOCC6)C=C5)C(=O)N1)C | 20.9 | -108
4 | c1ccc2c(-c3cnn4cc(-c5ccc(N6CCNCC6)cc5)cnc34)ccnc2c1 | 2.35 | -104
5 | C/C(=N\NC(=S)N1CCC1)c1ccccn1 | 0.0295 | -85.2
6 | CC(=O)Nc1ccc([C@H](C)C(=O)Nc2ncc(C(C)C)s2)cc1 | 2.09 | -59.3
7 | CC(C)C1=N[N](C\2=C1C(=O)N\C(=N2)CC3=CC=C(OCCO)C=C3)C4=C(Cl)C=CC=C4Cl | 0.0295 | -63.1
8 | CC(C)C[C@H](NC(=O)c1cc2ccccc2s1)C(=O)N1CCN(C(=O)[C@H](CO)N[S+](=O)([O-])c2ccc(Cl)cc2Cl)CC1 | 16.6 | -76.8
9 | CC(C)N(CCC(=O)c1ccc2ccccc2c1)Cc1ccccc1 | 20.9 | -77.8
10 | CC(C)[C@@H](N(CCCN)C(=O)C1=CC=C(C)C=C1)C/2=C(\CC3=CC=CC=C3)C(=O)C4=C(O2)C=C(Cl)C=C4 | 8.33 | -34.7
11 | CC(C)[N]1C=C(C)C2=C1C=C(C=C2C(=O)NC\C3=C(C)\C=C(C)/NC3=O)C4=CC=C(N=C4)N5CCN(C)CC5 | 20.9 | -96.9
12 | CC(O)(C#Cc1ccc2c(c1)N(c1nc(N)ncc1Cl)CC2)c1nccs1 (stereo not given) | 16.6 | -76.1
13 | Cc1[nH]c(/C=C2\C(=O)Nc3ccc([S+](=O)([O-])Cc4c(Cl)cccc4Cl)cc32)c(C)c1C(=O)N1CCC[C@@H]1CN1CCCC1 | 7.42 | -92
14 | Cc1ccc(-n2c(C)cc(-c3nnc4n3CCCCC4)c2C)cc1 | 20.9 | -47.3
15 | Cc1ccc([S+](=O)([O-])Nc2cc(-c3ccc(C#N)s3)ccc2C)cc1 | 0.0372 | -59.9
16 | Cc1cnc(Nc2ccc(F)cc2Cl)nc1-c1c[nH]c(C(=O)N[C@H](CO)c2cccc(Cl)c2)c1 | 4.17 | -115
17 | Cc1cccc(-c2n[nH]cc2-c2ccc(F)c(-c3cnn(CCO)c3)c2)n1 | 26.3 | -71.1
18 | CCc1cc(-c2n[nH]c(C)c2-c2ccc3c(c2)OCCO3)c(O)cc1O | 7.42 | -87
19 | CCN1C(=O)N\2CC3=CC(=CC(=C3[C@@H](C)\C=C2C14CCN(CC4)CC5=CC(=CC(=C5)C)C)OC)OC | 23.5 | -91.8
20 | CCOC\1=C(/C(=O)NC2=CC=C(OC3=C(Cl)C(=NC=C3)N)C(=C2)F)C(=O)N(\C=C1)C4=CC=C(F)C=C4 | 18.6 | -67.3
21 | CC[C@@H]1[C@H](F)C(=O)N[C@@H]1COc1nccc2cc(C(N)=O)c(OC)cc12 | 13.2 | -66.9
22 | CCn1cc(-c2ccnc3[nH]c(-c4cccc(CN(C)C)c4)cc23)c(-c2ccc(NC(=O)N(C)C)cc2)n1 | 5.25 | -101

Row | Compound | AC50 cell viability (HCT116 [1]) [µM] | efficacy (HCT116 [2]) [%]
23 | CN(C)Cc1ccc(-c2nc3cccc4c3n2CCNC4=O)cc1 | 5.9 | -65.6
24 | Cc1nc(Nc2n[nH]c3c2CN(C(=O)N[C@H](CN(C)C)c2ccccc2)C3(C)C)c2sccc2n1 | 0.0186 | -64.7
25 | Cc1cc(CN2CCN(c3c(Br)cnc4[nH]c(-c5ccc(N6CCN(C)CC6)cc5)nc34)CC2)no1 | 5.25 | -119
26 | Cc1cnc(Nc2ccc(N3CCN(C)CC3)cc2)nc1Nc1cccc([S+](=O)([O-])NC(C)(C)C)c1 | 1.86 | -89.5
27 | CNC(=O)c1ccc2c(c1)NC(=O)/C2=C(\Nc1cccc(CN(C)C)c1)c1ccccc1 | 18.6 | -93.1
28 | CNCCN(C)Cc1c[nH]nc1-c1ccc(O[C@H]2C[C@H](OCCC3CCOCC3)C2)cc1 | 18.6 | -52
29 | CN[S+]([O-])(=O)NC1=NC=CC(=C1F)CC/2=C(C)/C3=CC=C(OC4=NC=CC=N4)C=C3OC2=O | 1.66 | -43.7
30 | COc1ccc(-c2ccc3c(N4CCOCC4)nc(N4C[C@@H](C)O[C@@H](C)C4)nc3n2)cc1CO | 1.66 | -45.6
31 | COc1ncc(-c2ccc3nccc(-c4ccnnc4)c3c2)cc1N[S+](=O)([O-])c1ccc(F)cc1F | 0.105 | -74.6
32 | COc1cccc(Nc2ncnn3ccc(CN4CC[C@@H](N)[C@H](O)C4)c23)c1 | 18.6 | -71.1
33 | COc1cc(-c2nn(C3CCC(N4CCN(C(C)=O)CC4)CC3)c3ncnc(N)c23)ccc1NC(=O)c1cc2ccccc2n1C (stereo not given) | 10.5 | -90.5
34 | COc1cc([S+](C)(=O)[O-])ccc1Nc1nc2ccc(-c3ccc(NC(=O)[C@H](C)c4ccc(F)cc4)cc3)cn2n1 | 0.132 | -30.6
35 | COc1ccc(-c2oc3ncnc(N)c3c2-c2ccc(NC(=O)Nc3cc(C(F)(F)F)ccc3F)cc2)cc1 | 4.68 | -70.5
36 | COc1ccc(CNC(=O)Nc2ncc([N+](=O)[O-])s2)cc1 | 20.9 | -96.6
37 | COc1ccc(Cn2ccc3ccc(C(=O)NO)cc32)cc1 | 16.6 | -71.9
38 | COc1ccc(Oc2cc(NCCC(F)(F)F)c3ncc(-c4ccc(C(=O)NC5CC5)c(C)c4)n3n2)c(F)c1F | 0.372 | -56.8
39 | C[C@@H](N)c1ccc(C(=O)Nc2ccnc3[nH]ccc23)cc1 | 4.68 | -62.4
40 | C[C@@H]1COCCN1c1cc(-c2ccnn2C)c2ccnc(-c3ccn[nH]3)c2n1 | 0.525 | -70.3
41 | C[C@@H](C(=O)Nc1ccc(Cl)cc1)[C@H]1CC[C@@H](c2ccnc3ccc(F)cc32)CC1 | 18.6 | -47.3
42 | C[C@H]1CN(C[C@@H](C)O1)CC(=O)NC2=CC=C3SC4=C(CC3=C2)C=CC=C4\C5=C\C(=O)\C=C(/O5)N6CCOCC6 | 5.9 | -51.9
43 | Cc1cccc(CC(=O)N2CCc3c2ccc(-c2cn(C)c4ncnc(N)c24)c3F)n1 | 0.661 | -43.2
44 | C[N]1C=C(C=N1)C2=CC=C3N=CC\4=C(N(C(=O)\C=C4)C5=CC6=C(CCN6C(=O)C=C)C=C5)C3=C2 | 0.512 | -78.5

Row | Compound | AC50 cell viability (HCT116 [1]) [µM] | efficacy (HCT116 [2]) [%]
45 | Cn1cc(-c2ccc(F)c(C(F)(F)F)c2)nc1C1CCN(c2ncnc3[nH]ncc23)CC1 | 16.6 | -40.4
46 | Cn1ncc(Cl)c1-c1cc(C(=O)N[C@H](CN)Cc2ccc(F)c(F)c2)sc1Cl | 16.6 | -116
47 | Cn1ncc(Cl)c1-c1cc(C(=O)N[C@H](CN)Cc2cccc(F)c2)sc1Cl | 14.8 | -103
48 | Cc1nnn(C)c1-c1cnc2c3ccc(C(C)(C)O)cc3n([C@H](c3ccccc3)C3CCOCC3)c2c1 | 0.0186 | -82.9
49 | C[S+](=O)([O-])c1cccc(CNc2nc(Nc3ccc4c(c3)CCC(=O)N4)ncc2C(F)(F)F)c1 | 5.9 | -71.5
50 | O=C(NCc1ccncc1)C12C[C@H]3C[C@@H](C1)CC(c1ccc(Cl)cc1)(C3)C2 | 20.9 | -52.9
51 | FC(F)(F)C1=CC=C2C(SCCCCCO\C3=C\O\C(CN4CCOCC4)=C/C3=O)=CC=NC2=C1 | 18.6 | -67.7
52 | O=C(Nc1cccnn1)N1CCC(=Cc2cccc(Oc3ccc(C(F)(F)F)cn3)c2)CC1 | 14.8 | -72.6
53 | FC1=CC2=C3[N](CCN(CC3=C1)C(=O)N4CCCCC4)C=C2C/5=C(C(=O)NC5=O)\C6=CN=C7C=CC=C[N]67 | 11.8 | -108
54 | O=C(c1ccc(F)cc1)N1CCC[C@H](c2nc(-c3ccc(F)cc3)no2)C1 | 14.8 | -35.7
55 | NC(=O)c1cccc2nc(-c3ccc([C@H]4CCCN4)cc3F)[nH]c12 | 10.5 | -67.3
56 | NC(=O)c1ccccc1Nc1ccnc(Nc2cccc(O)c2)n1 | 5.9 | -95.9
57 | Nc1nccc(-c2c(-c3ccc(F)cc3)ncn2C2CCN(Cc3ccon3)CC2)n1 | 13.2 | -56.5
58 | NCC(=O)Nc1ccc(-n2nc(C(F)(F)F)cc2-c2ccc3c(ccc4ccccc43)c2)cc1 | 13.2 | -124
59 | NCC1CCN(c2nccc(-c3ccc4ccccc4c3)n2)CC1 | 14.8 | -126
60 | NC[C@@](O)(c1ccc(Cl)cc1)c1ccc(-c2cn[nH]c2)cc1 | 7.42 | -109
61 | N[S+]([O-])(=O)C1=CC=C(NC/2=C/C(=O)C3=CC=CC=C3C2=O)C=C1 | 10.5 | -81.9
62 | O=C(NCCCNc1nc(Nc2ccc(N3CCOCC3)cc2)ncc1C1CC1)C1CCC1 | 5.9 | -84.5
63 | OC1=C(Cl)C=C(N\C2=C(\C(=O)NC2=O)C3=C(C=CC=C3)[N+]([O-])=O)C=C1 | 20.9 | -54.8
64 | Oc1ccc(-c2nc(-c3ccncc3)c(-c3ccc(F)cc3)[nH]2)cc1 | 23.5 | -80
65 | OCCC#Cc1nc(-c2ccc(F)cc2)c(-c2ccncc2)n1CCCc1ccccc1 | 23.5 | -64.2
